From patent publication US6040291A, “Antimicrobial peptide” (Seikagaku Corporation, priority 1998, dated 2000)

Tested on: E. coli O157:H7
Test: Antimicrobial activity on E. coli O157:H7 (CFU count, IC50)
Format: cell-based
Conditions: Table 6
Experimental: Measurement method for antimicrobial activity: For the measurement of antimicrobial activity, E. coli [E. coli O157:H7 (collected from an E. coli O157 patients in Okayama prefecture, Kanagawa prefecture and Morioka city of Iwate Prefecture)], Klebsiella or Methicillin resistant Staphylococcus aureus; MRSA] was used.
These bacteria were grown in a liquid medium (Tryptosoy broth; manufactured by Eiken Kagaku). The bacteria cells in a logarithmic growth phase were collected, washed with PBS (pH 7.2), and adjusted to a final concentration of 5 ×10^3 to 1×10^4 cells/ml. To 450 μl of cell suspension, 50 μl of samples (peptide) in various concentrations were each added and mixtures were incubated at 37° C. for 1 hour. After the incubation, 100 μl of each reaction mixture was spread on an agarose medium (Nutrient agar; manufactured by Eiken Kagaku). This was incubated at 37° C. for 24 hours and the colony-forming unit (CFU) was counted to obtain 50% inhibition concentration (IC50).
Polymyxin B (known antimicrobial agent), A1, the peptide of the present invention (b), A3, the peptide of the present invention (d), A5 and A6 were used as samples and their antimicrobial activities on E. coli [E. coli O157:H7 (collected from E. coli O157 patients in Okayama prefecture, Kanagawa prefecture and Morioka city of Iwate Prefecture)] were examined by the above-described measurement method. […]

Substance: Polymyxin B
- Antimicrobial Activity on E. Coli O157:H7 (IC50) (isolate Kanagawa): < 2.5 µg/mL
- Antimicrobial Activity on E. Coli O157:H7 (IC50) (isolate Okayama): 0.2 µg/mL
